In assay [1] the test system is Transmitter/founder (T/F) HIV-1 viruses. As to the kind of experiment: MAGI assay, all four T/F viruses (range). In kind it is cell-based. To be noted: Human immunodeficiency virus 1, MAGI, read-out: IC50 values (range over four T/F viruses). The source says:
(§1) We also examined the activity of GRL-compounds against Transmitter/founder (T/F) HIV-1 viruses. T/F viruses are involved in the initial infection. It is considered that T/F viruses virtually always use CCR5 rather than CXCR4 and infect T cells but not macrophages because […] of CD4 is needed to mediate virus entry for the initial transmission[20]–[24]. […] We obtained four HIV-1 T/F infectious clones. We determined the antiviral activity of GRL-117C, GRL-10007C and GRL-10018C on these HIV-1 clones using MAGI assay.
MAGI-CCR5 cells[18] were maintained in DMEM supplemented with 10% fetal calf serum (FCS: Gemini Bio-Products, West Sacramento, CA), 200 μg/ml G418, 100 μg/ml hygromycin B, and 100 μg/ml zeomycin. The Chinese hamster ovary (CHO) cells expressing CCR5[19] were maintained in Ham’s F-12 medium (GIBCO-BRL, Rockville, MD) supplemented with 10% FCS, 50 U/ml penicillin, and 50 μg/ml streptomycin in the presence of 5 μg/ml blasticidin S hydrochloride. TZM-bl cells were obtained from the NIH AIDS Reagent Program, and were cultured in DMEM with 10% FCS. […]
Antiviral assays using PHA-PBMCs (p24 assay) were conducted as previously reported[16],[38]. […] The amount of p24 antigens produced by the cells was determined on day 7 in the culture via a commercially available ELISA kit (PerkinElmer). […]

The subject of the next assay is pCH058.c/2960. As to the kind of experiment: MAGI assay, T/F HIV-1 clone pCH058.c/2960. The class given is cell-based. Particulars: Human immunodeficiency virus 1, MAGI.
From the text: as §1
MAGI-CCR5 cells[18] were maintained in DMEM supplemented with 10% fetal calf serum (FCS: Gemini Bio-Products, West Sacramento, CA), 200 μg/ml G418, 100 μg/ml hygromycin B, and 100 μg/ml zeomycin. The Chinese hamster ovary (CHO) cells expressing CCR5[19] were maintained in Ham’s F-12 medium (GIBCO-BRL, Rockville, MD) supplemented with 10% FCS, 50 U/ml penicillin, and 50 μg/ml streptomycin in the presence of 5 μg/ml blasticidin S hydrochloride. TZM-bl cells were obtained from the NIH AIDS Reagent Program, and were cultured in DMEM with 10% FCS. Peripheral blood mononuclear cells (PBMCs) were isolated from buffy coats of HIV-1 seronegative individuals, and were activated with 10 μg/ml phytohemagglutinin (PHA) prior to use[16]. A laboratory wild-type R5-HIV-1 strain (HIV-1Ba-L)[37] was employed for drug susceptibility assays. AD101 (experimental CCR5 inhibitor) and VVC-resistant HIV clones[7],[8] were provided by Dr. John P. Moore of Cornell University for this study. The clones were propagated with activated PBMCs, and were used for the assays. […] The following reagents (plasmids) for T/F HIV-1 viruses[22],[24] were obtained through the NIH AIDS Reagent Program, Division of AIDS, NIAID, NIH: pCH040.c/2625 (cat# 11740), pCH106.c/2633 (cat# 11743), pTHRO.c/2626 (cat# 11745), and pCH058.c/2960 (cat# 11856), from Dr. John Kappes and Dr. Christina Ochsenbauer.
(§2) Antiviral assays using PHA-PBMCs (p24 assay) were conducted as previously reported[16],[38]. In brief, PHA-PBMCs (1 × 10^6/ml) were exposed to 50 TCID50 of HIV-1Ba-L or drug-resistant HIV-1 infectious clones in the presence or absence of various concentrations of drugs; 10-fold serial dilutions were performed in 96-well microculture plates. The amount of p24 antigens produced by the cells was determined on day 7 in the culture via a commercially available ELISA kit (PerkinElmer). The p24 production level in drug-free control cell cultures was used as the reference. […] Antiviral assays using MAGI-CCR5 cells (MAGI assay) were conducted as previously reported[16],[39]. Single-round virus infection assays using TZM-bl cells infected with R5-HIV-1s (HIV-1YU2, HIV-1KP-5pc, and HIV-1KP-5mvcR)[10] were also conducted as previously described.

The subject of another assay is HIV-1YU2. As to the kind of experiment: TZM-bl single-round infection assay, HIV-1YU2. In kind it is cell-based. Particulars: Human immunodeficiency virus 1, YU2, drug-sensitive, mean ± SD. The protocol: MAGI-CCR5 cells[18] were maintained in DMEM supplemented with 10% fetal calf serum (FCS: Gemini Bio-Products, West Sacramento, CA), 200 μg/ml G418, 100 μg/ml hygromycin B, and 100 μg/ml zeomycin. The Chinese hamster ovary (CHO) cells expressing CCR5[19] were maintained in Ham’s F-12 medium (GIBCO-BRL, Rockville, MD) supplemented with 10% FCS, 50 U/ml penicillin, and 50 μg/ml streptomycin in the presence of 5 μg/ml blasticidin S hydrochloride. TZM-bl cells were obtained from the NIH AIDS Reagent Program, and were cultured in DMEM with 10% FCS. Peripheral blood mononuclear cells (PBMCs) were isolated from buffy coats of HIV-1 seronegative individuals, and were activated with 10 μg/ml phytohemagglutinin (PHA) prior to use[16]. A laboratory wild-type R5-HIV-1 strain (HIV-1Ba-L)[37] was employed for drug susceptibility assays. AD101 (experimental CCR5 inhibitor) and VVC-resistant HIV clones[7],[8] were provided by Dr. John P. Moore of Cornell University for this study. The clones were propagated with activated PBMCs, and were used for the assays. A clinical HIV-1 strain, HIV-1KP-5pc, and an MVC-resistant isolate, HIV-1KP-5mvcR, were prepared and used for antiviral assays, as previously described[10],[38]. The following reagents (plasmids) for T/F HIV-1 viruses[22],[24] were obtained through the NIH AIDS Reagent Program, Division of AIDS, NIAID, NIH: pCH040.c/2625 (cat# 11740), pCH106.c/2633 (cat# 11743), pTHRO.c/2626 (cat# 11745), and pCH058.c/2960 (cat# 11856), from Dr. John Kappes and Dr. Christina Ochsenbauer.
as §2

Another assay has as its target T1, CCR5 (Homo sapiens, UniProt P51681).
T1 construct: expressed in transfected cells; host or cells: Chinese hamster ovary (CHO) cells expressing CCR5
As to the kind of experiment: Inhibition of 125I-MIP-1β binding to CCR5 (CCR5+ CHO cells). The method, then:
In order to determine whether GRL derivatives block the binding of CC-chemokines to CCR5, we conducted a CC-chemokine binding inhibition assay using ^125I-labeled CC-chemokines (^125I-RANTES, ^125I-MIP-1α, and ^125I-MIP-1β) and CCR5 expressing cells.
CCR5^+ CHO cells were incubated with (A) ^125I-MIP-1α, (B) ^125I-MIP-1β, and (C) ^125I-RANTES (200 ng/ml) in the presence or absence of varying concentrations of CCR5 inhibitors. Data are shown as means ± s.d. of three independent experiments.
The inhibition of the binding of ^125I-labeled CC-chemokines ([^125I] RANTES, [^125I] MIP-1α, or [^125I] MIP-1β) to CCR5 by various CCR5 inhibitors was measured as previously described. Calcium flux inhibition assays were also performed with CCR5 inhibitors, and were carried out with the Fluo-4 Direct^TM calcium reagent (Invitrogen); assays were conducted as previously described with minor modifications. In brief, CHO-CCR5 cells (5 × 10^5 cells) were exposed to Fluo-4 Direct^TM calcium reagent for 60 min at 37 °C in RPMI containing 5% FCS. Cells were then incubated with the test compound for 30 min at varying concentrations. Subsequently, cells were exposed to either MIP-1α, MIP-1β, or RANTES at 200 ng/ml. Relative increases in cytosolic Ca^2+ levels after chemokine exposure were determined with flow cytometry (FACSCalibur, BD Biosciences), and IC50 values of cytosolic Ca^2+ mobilization (Ca^2+ flux) were compared with the Ca^2+ flux level in drug-free control samples.

Each structure is given as a SMILES string.

Data on one compound can be found in PMC6423129, “Activity and structural analysis of GRL-117C: a novel small molecule CCR5 inhibitor active against R5-tropic HIV-1s” (Scientific Reports, 2019).

T1 sequence (P51681 whole entry): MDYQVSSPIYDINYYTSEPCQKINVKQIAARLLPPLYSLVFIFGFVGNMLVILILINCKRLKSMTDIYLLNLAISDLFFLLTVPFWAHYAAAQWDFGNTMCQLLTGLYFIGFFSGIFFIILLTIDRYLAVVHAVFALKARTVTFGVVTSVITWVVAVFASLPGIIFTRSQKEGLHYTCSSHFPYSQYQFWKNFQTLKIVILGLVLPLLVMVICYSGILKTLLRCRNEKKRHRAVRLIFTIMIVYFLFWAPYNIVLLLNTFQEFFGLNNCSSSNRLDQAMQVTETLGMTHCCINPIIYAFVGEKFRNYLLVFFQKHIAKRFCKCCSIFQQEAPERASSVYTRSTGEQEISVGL

Turning to `C=CCN(C(=O)OCc1ccc([N+](=O)[O-])cc1)C1CC2CCC(C1)N2CCC(C)(CN(C)S(=O)(=O)c1ccccc1)c1ccccc1` (centres unmarked) [GRL-117C], the values for the IC50 (in assay [1]; with pCH058.c/2960; in the assay with HIV-1YU2) were 1.9 to 3.2 nM, 3.2 ± 1 nM and 68 ± 8.8 nM, respectively. In addition, the 90% effect concentration (IC90) (usually the concentration needed for an effect of 90%) in the assay on HIV-1YU2 was over 100 nM. Also, the 50% effective concentration (EC50) – broadly, the concentration that produces a half-maximal response – at CCR5 was found to be 2 nM.
